Measured values: article PMC12040169 (PLOS Biology, 2025)

assay: in vitro; settings: human, hela cells, % viability

Structure (SMILES) | viability at 28.5 h, 10 µM
Fc1ccc([C@@H]2COC[C@H]2NCc2ccsc2)cc1 [CBK282598] | 100%
Cc1oc2ccc(O)cc2c1C(=O)NC(C)(C)CN1CCCC(C)C1 (stereo not drawn) [CBK282601] | 105%
CCN1CCCC1CN(Cc1cccs1)CC1CCOC1 (stereo not drawn) [CBK282602] | 97.1%
CCN1CCCC1CN(Cc1cccs1)Cc1cnc(C)n1C (stereo not drawn) [CBK282603] | 91.5%
c1ccc(CN2CCC3(CC2)CNCc2ccccc2O3)cc1 [CBK282605] | 88.4%
Cc1ccc(C2(O)CCN(CCNC(=O)C3CCCC3)CC2)cc1 [CBK282606] | 93.1%
Cc1ccc(C2(O)CCN(CCNC(=O)C3CC3C)CC2)cc1 (stereo not drawn) [CBK282607] | 83.9%
Cc1cc2occ(CC(=O)NC3CCCN(C)C3)c2cc1C (stereo not drawn) [CBK282611] | 93.1%
Cc1nc(C)n(CCNC(=O)Cc2coc3cc(C)c(C)cc23)n1 [CBK282613] | 90.7%
O=C(NCCCc1ccccn1)c1ccnc2ccc(Cl)cc12 [CBK282618] | 92.4%
O=C(Cn1c(-c2cccs2)cc2cccnc21)N1CCCCC1 [CBK282619] | 98.1%
O=C(CCn1c(-c2ccncc2)cc2cccnc21)NC1CCCCC1 [CBK282621] | 87.8%
O=C(CCn1c(-c2cccnc2)cc2cccnc21)NC1CC1 [CBK282622] | 95.9%
Cc1cc2cc(C(=O)NCC3CCCN(C(C)C)C3)ccc2o1 (stereo not drawn) [CBK282625] | 105%
Cc1ccc(C2(CN3CCC(NC(=O)CO)CC3)CCCC2)cc1 [CBK282628] | 88.5%
CCc1n[nH]c(C(=O)NCC(c2ccc(F)cc2)N2CCCC2)c1C (stereo not drawn) [CBK282630] | 85.8%
O=C(CCN1Cc2ccccc2C1=O)NCCN1CCc2ccccc21 [CBK282632] | 97.5%
Cc1cccc(-c2noc(C)c2C(=O)NCCn2ccnc2C)c1 [CBK282633] | 107%
CN1CCC2(CC1)CC(NC(=O)C1CCCCC1)c1ccccc1O2 (stereo not drawn) [CBK282635] | 91.6%
COc1ccccc1CCCNC(=O)c1ccc(=O)n(C)c1 [CBK282636] | 82.7%
CC(C)N(C(=O)Cn1nc(-c2cccs2)ccc1=O)C(C)C [CBK282638] | 90%
O=C(NCCCc1ccccn1)c1cccc(N2CCCC2=O)c1 [CBK282643] | 85.9%
Cc1ccn(CCNC(=O)c2cc3cccc(C)c3nc2C)n1 [CBK282645] | 82.3%

Structure (SMILES) | viability at 28.5 h, 10 µM
CCC(=O)NCCCn1c(-c2cccnc2C)cc2cccnc21 [CBK282646] | 90.4%
O=C(CCn1c(-c2cccnc2)cc2cccnc21)NC1CCCCC1 [CBK282647] | 85.8%
Cc1n[nH]cc1CN(CCCn1ccnc1)Cc1cccc(F)c1 [CBK282650] | 90.1%
CCC(NC(=O)Cc1c(C)nc(SC)[nH]c1=O)c1ccc(F)cc1 (stereo not drawn) [CBK282653] | 81.7%
Cn1nc(C2CCCN(C(=O)C3CC3)C2)c2cccnc21 (stereo not drawn) [CBK282654] | 89.4%
Cc1ccn(CCNC(=O)CCN2Cc3ccccc3C2=O)n1 [CBK282655] | 86.4%
CC1(C(=O)NC2CCN(Cc3cccc(F)c3)CC2)CCCO1 (stereo not drawn) [CBK282658] | 91.6%
CCCn1cc(CN2C3CCC2CC(O)(c2ccccc2F)C3)cn1 (stereo not drawn) [CBK282664] | 99.3%
CC1CC(C)CN(CCCNC(=O)c2cc(C(C)C)nn2C)C1 (stereo not drawn) [CBK282665] | 106%
C=C(C)CN1CCN(C(=O)c2[nH]c3ccc(OCC)cc3c2C)CC1 [CBK282666] | 96.7%
CC(NC(=O)C1C=CCN1S(C)(=O)=O)c1ccc2c(c1)CCC2 (stereo not drawn) [CBK282667] | 88.7%
CCCC(NC(=O)C1C=CCN1S(C)(=O)=O)c1cccs1 (stereo not drawn) [CBK282668] | 92.9%
CCn1cc(CC(=O)Nc2cccc(-n3cnnc3)c2)c2ccccc21 [CBK282669] | 66.4%
Cc1nccn1CC1(O)CCN(Cc2c[nH]c3ccccc23)CC1 [CBK282671] | 82.1%
O=C(c1ccccc1F)N1CCCC(c2n[nH]c3ncccc23)C1 (stereo not drawn) [CBK282672] | 101%
Cc1nn(C(C)CC(=O)NCCN2CCc3ccccc32)c(C)c1C (stereo not drawn) [CBK282675] | 87.1%
CC(=O)N1CCc2nc(NC(=O)c3cccs3)sc2C1 [CBK282680] | 74.9%
O=C(Cn1c(-c2ccco2)cc2cccnc21)N1CCCC1 [CBK282683] | 84.8%
O=C(NCCCc1ccc(F)cc1)c1cccc(N2CCCC2=O)c1 [CBK282684] | 88.6%
Cc1ncccc1-c1cc2cccnc2n1CCCNC(=O)C1CC1 [CBK282687] | 81.5%
Cc1ncccc1-c1cc2cccnc2n1CCCNC(=O)C1CC1C (stereo not drawn) [CBK282688] | 101%
Cc1ncccc1-c1cc2cccnc2n1CCC(=O)NC1CC1 [CBK282690] | 106%
CC(C)(C)NC(=O)CCn1c(-c2cccnc2)cc2cccnc21 [CBK282691] | 109%

Structure (SMILES) | viability at 28.5 h, 10 µM
CC1CCCCN1C(=O)CCn1c(-c2cccnc2)cc2cccnc21 (stereo not drawn) [CBK282692] | 97.1%
C=CCN1CCC2(CC1)CN(C(C)=O)Cc1cc(C)ccc1O2 [CBK282693] | 97.5%
COc1ccccc1CCCNC(=O)CC1CCCCN1C (stereo not drawn) [CBK282694] | 101%
CCC1CCCCN1CC(=O)N1CCCC1c1nc2ccccc2[nH]1 (stereo not drawn) [CBK282695] | 93.5%
CCc1cccc2c(CC(=O)NCCn3ccc(C)n3)c(C)[nH]c12 [CBK282698] | 105%
Cc1[nH]c2ccc(Cl)cc2c1CC(=O)N(C)CCN(C)C [CBK282700] | 95.5%
Cc1nn(C(C)CC(=O)NCC2CCN(C(C)C)CC2)c(C)c1C (stereo not drawn) [CBK282703] | 84.2%
C=CCC1(CC=C)CCN1C(=O)c1cccc(N2CCCC2=O)c1 [CBK282709] | 85%
CC1(C(=O)NC(c2ccncc2)c2ccc(Cl)cc2)CCCO1 (stereo not drawn) [CBK282710] | 89.5%
CC(C)N1CCC(CNC(=O)c2cc3ccccc3c(=O)s2)CC1 [CBK282711] | 88.6%
C=C(C)CN1CCN(C(=O)CSc2nccc3ccccc23)CC1 [CBK282712] | 88.4%
Cc1cc2c(cc1Cl)C(=O)CC1(CCNCC1)O2 [CBK282715] | 83.1%
CC(C)C(=O)N1C[C@@H](N(C)C)[C@H](c2cn(C)c3ccccc23)C1 [CBK282717] | 91.2%
Cc1nn(C)cc1CN1CCN(CC2(c3ccccc3)CC2)CC1 [CBK282721] | 105%
NC[C@H]1CC[C@H](C(=O)NCCN2CCc3ccccc32)CC1 [CBK282723] | 82.7%
COc1ccc(CC(=O)N(C)CCN2CCCCC2)cc1C [CBK282728] | 99.3%
CCn1ncc(S(=O)(=O)Nc2ccc3c(ccn3C)c2)c1C [CBK282730] | 102%
Cc1cc(C)c2c(CC(=O)N(C)CCN(C)C)c(C)[nH]c2c1 [CBK282732] | 83.6%
Cc1ccc(C2(O)CCN(Cc3c(C)nc4cc(C)ccn34)CC2)cc1 [CBK282733] | 80.5%
Cc1ccc(C2(O)CCN(Cc3c(C)nc4sccn34)CC2)cc1 [CBK282734] | 85.8%
CCCn1cc(CN2CCC(O)(c3ccc(C)cc3)CC2)cn1 [CBK282737] | 103%
C=Cn1ncc(CN2C3CCC2CC(O)(c2ccc(F)cc2)C3)c1C (stereo not drawn) [CBK282738] | 104%
Cn1c(=O)n(C)c2cc(CNC3(c4ccccc4)CC3)ccc21 [CBK282746] | 87.9%

Structure (SMILES) | viability at 28.5 h, 10 µM
COc1ccc(C)cc1CC(=O)N(C)CCN1CCCCC1 [CBK282750] | 88.7%
CCC(CN1CCCC1)NC(=O)Cc1c(C)[nH]c2ccc(F)cc12 (stereo not drawn) [CBK282751] | 76.4%
CCC(CN1CCCC1)NC(=O)Cc1ccc(OC)c(C)c1 (stereo not drawn) [CBK282752] | 92.9%
CCn1cc(CN2C3CCC2CC(O)(c2cccc(F)c2)C3)c(C)n1 (stereo not drawn) [CBK282755] | 80.9%
CCn1cc(S(=O)(=O)N2CCCC3(CCCCC3)C2)c(C)n1 [CBK282756] | 83.9%
CCC(CN1CCCC1)NC(=O)C1CC(=O)Nc2ccccc21 (stereo not drawn) [CBK282757] | 90.6%
CCC(CN1CCCC1)NC(=O)C1(c2ccccc2)CCOCC1 (stereo not drawn) [CBK282758] | 96.6%
CCC(CN1CCCC1)NC(=O)Cc1cc(C)ccc1OC (stereo not drawn) [CBK282759] | 83.2%
O=S(=O)(NCC1(c2ccccc2)CCCC1)c1cccnc1 [CBK282762] | 102%
COC(=O)Cn1c(-c2ccc(F)cc2)cc2cccnc21 [CBK282763] | 91.5%
NC[C@H]1CC[C@H](C(=O)NCC2CCCN(Cc3ccccc3)C2)CC1 (stereo partly drawn) [CBK282764] | 89.6%
CCn1cc(NC(=O)CCn2c(C(F)F)cc3cccnc32)cn1 [CBK282769] | 97.1%
CN(C)CCN(Cc1cccnc1)C(=O)C1(c2ccccc2F)CC1 [CBK282771] | 97%
O=C(CC1CCS(=O)(=O)C1)NC1(c2ccc(Cl)cc2)CC1 (stereo not drawn) [CBK282773] | 97.6%
CCC(CN1CCOCC1)NC(=O)Cc1c(C)[nH]c2ccc(F)cc12 (stereo not drawn) [CBK282774] | 92.6%
O=C(NC1(c2ccccc2)CC1)c1cc(-n2cnnc2)ccc1Cl [CBK282777] | 97.2%
O=C(NC1(c2ccccc2)CC1)c1ccc(-n2cnnc2)cc1 [CBK282778] | 111%
O=C(NC1(c2ccccc2)CC1)c1cccc(-n2cnnc2)c1 [CBK282779] | 99.1%
OC1(c2cccnc2)CCN(CC2(c3ccc(Cl)cc3)CC2)CC1 [CBK282780] | 93%
CN1CCC(N(CCO)CC2(c3ccc(Cl)cc3)CC2)CC1 [CBK282781] | 96.6%
CN(C)CCN1CCN(CC2(c3ccc(Cl)cc3)CC2)CC1 [CBK282783] | 103%
CCC(CN1CCN(C)CC1)NC(=O)Cc1ccc2c(c1)CCC2 (stereo not drawn) [CBK282784] | 92.2%
CCC(CN1CCN(C)CC1)NC(=O)C1(c2ccc(F)cc2)CC1 (stereo not drawn) [CBK282785] | 104%

same assay, conditions: human, hela cells, % viability, bulk resorufin, single well

Structure (SMILES) | viability at 28.5 h, 10 µM
Cc1cccc(CNC(Cc2ccsc2)c2nccs2)n1 (stereo not drawn) [CBK282697] | 106%
